Measurements reported in PubChem BioAssay AID1919006 (Molecular Pharmacology Branch, DTP, NCI, 2023).

Test system: 885512-296-R-J2-PDC complex spheroid growth, % test/control
Assay: Anticancer human tumor 885512-296-R-J2-PDC patient-derived breast carcinoma cell line growth inhibition [AhR]
Settings: for IC50: curve of first compound; for viability, T/C: stronger effect = lower value
From the text: Multicellular complex tumor spheroid response to aryl hydrocarbon receptor antagonists in combination with a variety of drugs and investigational agents in selected tumor cell lines
The current study was undertaken to assess response to aryl hydrocarbon receptor antagonists in combination with standard-of-care drugs and investigational agents in solid tumor complex spheroid models. Complex spheroids include a stromal component modeled by human endothelial cells (HUVEC) and fibroblasts modeled by human mesenchymal stem cells (MSCs). The concentration ranges selected for each drug and investigational agent were based upon clinically achievable concentrations if the clinical Cmax of the agent was known.
Compounds. The drugs and investigational agents: BAY 2416964 (NSC825713), GNF351 (NSC835774), CH-223191 (NSC835775), CPI-455 (NSC825282), aza-TdCyd (NSC777586), decitabine (NSC127716), belinostat (NSC758774), entinostat (NSC756642), pevonedistat (NSC761192), tazemetostat (NSC777109), talazoparib (NSC765396), olaparib (NSC753686), selinexor (NSC780203), nedisertib (M3814, NSC802822), bortezomib (NSC756655), venetoclax (NSC766270), doxorubicin (NSC123127), elimusertib (BAY189344, NSC800525), ceralasertib (AZD6738, NSC777638), TAK-243 (NSC785004), alisertib (NSC759677), etoposide (NSC141540), topotecan (NSC609699), eribulin (NSC707389), gemcitabine (NSC613327), carboplatin (NSC241240), cisplatin (NSC119875), and SN-38 (NSC673596) were obtained from the National Cancer Institute (NCI) Developmental Therapeutics Program Chemical Repository (32). The FDA-approved anticancer drug set is available from the Developmental Therapeutics Program at https://dtp.cancer.gov/organization/dscb/obtaining/available plates.htm. […] The stock solutions were prepared in dimethyl sulfoxide (DMSO, Sigma-Aldrich, St. Louis, MO, cat. D2650), except for the platinum compounds which were prepared in saline (Quality Biological, Gaithersburg, MD, cat. 114-055-101), at 800-fold the tested concentration and stored at -70 degrees C prior to their use. All drugs and investigational agents were tested over a range starting from a high concentration at or near the clinical Cmax and decreasing in half-log increments. If the clinical Cmax for an agent had not been determined, the highest concentration tested was 10 microM (Table 1).
Cell Culture. All cells were maintained in an incubator at 37 degrees C and 5% CO2 with 95% humidity. The PDC lines were cultured according to standard operating procedures established by the NCI PDMR (https://pdmr.cancer.gov). Briefly, all PDCs were thawed and cultured in Matrigel-coated flasks prepared with a working solution of 1X Ham's F-12 nutrient mix, without supplementation (Invitrogen, Waltham, MA, cat. 11765054), 100 U/mL penicillin-streptomycin (Invitrogen, cat. 15140122), and 2.5% Matrigel (Corning Inc., Corning, NY, cat. 354248) for the first three passages. All PDCs were cultured in complete DMEM/F-12 media containing advanced DMEM/F-12 (Invitrogen, cat. 12634028), 4.9% defined fetal bovine serum, heat inactivated (HyClone Laboratories Inc., Logan, UT, cat. SH30070.03HI), 389 ng/mL hydrocortisone (Sigma-Aldrich, cat. H4001), 9.7 ng/mL human EGF recombinant protein (Invitrogen, cat. PHG0313), 23.4 microg/mL adenine (Sigma-Aldrich, cat. A2786), 97.3 U/mL penicillin-streptomycin (Invitrogen, cat. 15140122), 1.9 mM L-glutamine (Invitrogen, cat. 25030081), and 9.7 microM Y-27632 dihydrochloride (Tocris Bioscience, Bristol, United Kingdom, cat. 1254). The PDCs were cultured in complete DMEM/F12 media without 10 microM Y-27632 dihydrochloride for at least two passages prior to the screen. The established cell lines NCI-H1341 and […] were cultured in DMEM/F-12, HEPES (Invitrogen, cat. 11330032), 5% defined fetal bovine serum (HyClone Laboratories Inc., cat. SH30070.03), ITS premix universal culture supplement [insulin (5 microg/mL), transferrin (5 microg/mL), and selenious acid (5 ng/mL)] […]

[1] = second compound 0.1 µM, first compound 0.0316 µM
[2] = second compound 0.1 µM, first compound 0.1 µM
[3] = second compound 0.1 µM, first compound 0.316 µM
[4] = second compound 0.1 µM, first compound 1 µM
[5] = second compound 0.316 µM, first compound 0.0316 µM
[6] = second compound 0.316 µM, first compound 0.1 µM
[7] = second compound 0.316 µM, first compound 0.316 µM
[8] = second compound 0.316 µM, first compound 1 µM
[9] = second compound 1 µM, first compound 0.0316 µM
[10] = second compound 1 µM, first compound 0.1 µM
[11] = second compound 1 µM, first compound 0.316 µM
[12] = second compound 1 µM, first compound 1 µM
[13] = second compound 3.16 µM, first compound 0.0316 µM
[14] = second compound 3.16 µM, first compound 0.1 µM
[15] = second compound 3.16 µM, first compound 0.316 µM
[16] = second compound 3.16 µM, first compound 1 µM
[17] = second compound 10 µM, first compound 0.0316 µM
[18] = second compound 10 µM, first compound 0.1 µM
[19] = second compound 10 µM, first compound 0.316 µM
[20] = second compound 10 µM, first compound 1 µM
[21] = second compound 0.1 µM, first compound 0.000316 µM
[22] = second compound 0.1 µM, first compound 0.001 µM
[23] = second compound 0.1 µM, first compound 0.00316 µM
[24] = second compound 0.1 µM, first compound 0.01 µM
[25] = second compound 0.316 µM, first compound 0.000316 µM
[26] = second compound 0.316 µM, first compound 0.001 µM
[27] = second compound 0.316 µM, first compound 0.00316 µM
[28] = second compound 0.316 µM, first compound 0.01 µM
[29] = second compound 1 µM, first compound 0.000316 µM
[30] = second compound 1 µM, first compound 0.001 µM
[31] = second compound 1 µM, first compound 0.00316 µM
[32] = second compound 1 µM, first compound 0.01 µM
[33] = second compound 3.16 µM, first compound 0.000316 µM
[34] = second compound 3.16 µM, first compound 0.001 µM
[35] = second compound 3.16 µM, first compound 0.00316 µM
[36] = second compound 3.16 µM, first compound 0.01 µM
[37] = second compound 10 µM, first compound 0.000316 µM
[38] = second compound 10 µM, first compound 0.001 µM
[39] = second compound 10 µM, first compound 0.00316 µM
[40] = second compound 10 µM, first compound 0.01 µM
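Note: spheroids exposed to compounds for seven days.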

Structure (SMILES) | IC50 (second compound 0.1 µM) [nM] | IC50 (second compound 0.316 µM) [nM] | IC50 (second compound 1 µM) [nM] | IC50 (second compound 3.16 µM) [nM] | IC50 (second compound 10 µM) [nM] | viability, T/C [1] [%] | viability, T/C [2] [%] | viability, T/C [5] [%] | viability, T/C [6] [%] | viability, T/C [9] [%] | viability, T/C [10] [%] | viability, T/C [13] [%] | viability, T/C [14] [%] | viability, T/C [17] [%] | viability, T/C [18] [%] | viability, T/C [23] [%] | viability, T/C [24] [%] | viability, T/C [27] [%] | viability, T/C [28] [%] | viability, T/C [31] [%] | also measured
CC1(C)CCC(CN2CCN(c3ccc(C(=O)NS(=O)(=O)c4ccc(NCC5CCOCC5)c([N+](=O)[O-])c4)c(Oc4cnc5[nH]ccc5c4)c3)CC2)=C(c2ccc(Cl)cc2)C1 + Cc1cncc(-c2nc(NCCc3c[nH]c4ccccc34)c3ncn(C(C)C)c3n2)c1 | 5310 | 5220 | 3860 | < 31.6 | < 31.6 | 108 | 120 | 95.8 | 98.3 | 87.5 | 84.5 | 42.2 | 49.5 | 12.7 | 13.7 |  |  |  |  |  | viability, T/C [3]: 100%; viability, T/C [4]: 97.9%; viability, T/C (second compound 0.1 µM, first compound 3.16 µM): 73%; viability, T/C (second compound 0.1 µM, first compound 10 µM): 21.9%; viability, T/C [7]: 97%; viability, T/C [8]: 100%; viability, T/C (second compound 0.316 µM, first compound 3.16 µM): 68.4%; viability, T/C (second compound 0.316 µM, first compound 10 µM): 26.2%; viability, T/C [11]: 77.8%; viability, T/C [12]: 71.8%; viability, T/C (second compound 1 µM, first compound 3.16 µM): 57%; viability, T/C (second compound 1 µM, first compound 10 µM): 23.2%; viability, T/C [15]: 50.7%; viability, T/C [16]: 41.4%; viability, T/C (second compound 3.16 µM, first compound 3.16 µM): 39.7%; viability, T/C (second compound 3.16 µM, first compound 10 µM): 29.8%; viability, T/C [19]: 14.3%; viability, T/C [20]: 12.4%; viability, T/C (second compound 10 µM, first compound 3.16 µM): 13.8%; viability, T/C (second compound 10 µM, first compound 10 µM): 10.1%
Cn1ncnc1C1c2n[nH]c(=O)c3cc(F)cc(c23)NC1c1ccc(F)cc1 (stereo not given) + Cc1ccccc1N=Nc1ccc(NC(=O)c2ccnn2C)c(C)c1 | 91.3 | > 100 | > 100 | > 100 | < 0.316 | 68.7 | 48.4 | 76.3 | 54.9 | 67.5 | 53.8 | 67.4 | 52.1 | 50.2 | 44.2 | 89.9 | 93 | 86 | 87.7 | 96.6 | viability, T/C [21]: 85.6%; viability, T/C [22]: 99.2%; viability, T/C [25]: 110%; viability, T/C [26]: 94.5%; viability, T/C [29]: 98.5%; viability, T/C [30]: 82.9%; viability, T/C [32]: 83.9%; viability, T/C [33]: 77.6%; viability, T/C [34]: 87.5%; viability, T/C [35]: 93%; viability, T/C [36]: 83.5%; viability, T/C [37]: 50.1%; viability, T/C [38]: 49.9%; viability, T/C [39]: 46.5%; viability, T/C [40]: 47.2%
Cn1ncnc1C1c2n[nH]c(=O)c3cc(F)cc(c23)NC1c1ccc(F)cc1 (stereo not given) + Cc1cncc(-c2nc(NCCc3c[nH]c4ccccc34)c3ncn(C(C)C)c3n2)c1 | > 100 | > 100 | > 100 | 35.2 | < 0.316 | 82.4 | 56.2 | 76 | 53.5 | 68.3 | 51.8 | 49.2 | 45.7 | 22.1 | 21.6 | 99.8 | 99.1 | 105 | 87.4 | 79.4 | viability, T/C [21]: 116%; viability, T/C [22]: 112%; viability, T/C [25]: 120%; viability, T/C [26]: 108%; viability, T/C [29]: 87.1%; viability, T/C [30]: 99.5%; viability, T/C [32]: 74.9%; viability, T/C [33]: 55.2%; viability, T/C [34]: 58.4%; viability, T/C [35]: 54.6%; viability, T/C [36]: 54.5%; viability, T/C [37]: 23.8%; viability, T/C [38]: 21.6%; viability, T/C [39]: 21.3%; viability, T/C [40]: 18.1%
CC1COCCN1c1cc(-c2ccnn2C)c2ccnc(-c3ccn[nH]3)c2n1 (stereo not given) + Cc1cncc(-c2nc(NCCc3c[nH]c4ccccc34)c3ncn(C(C)C)c3n2)c1 | 34.4 | 33.4 | 22.1 | 3.22 | < 3.16 | 55.2 | 9.6 | 51.9 | 9.85 | 40.3 | 7.24 | 33.7 | 8.94 | 9.95 | 6.27 | 99.4 | 85.3 | 83.1 | 95.9 | 74.4 | viability, T/C [3]: 3.2%; viability, T/C [4]: 2.72%; viability, T/C [7]: 3.26%; viability, T/C [8]: 2.57%; viability, T/C [32]: 71.3%; viability, T/C [11]: 2.89%; viability, T/C [12]: 2.37%; viability, T/C [35]: 48.9%; viability, T/C [36]: 50.1%; viability, T/C [15]: 2.55%; viability, T/C [16]: 2.78%; viability, T/C [39]: 13.3%; viability, T/C [40]: 15.6%; viability, T/C [19]: 3.04%; viability, T/C [20]: 2.87%
